Assays:
Test in all cases: relative viability (nuclei count vs DMSO), 5 days (fraction); higher = more cells survive
Bexarotene + Pemetrexed = compound: C=C(c1ccc(C(=O)O)cc1)c1cc2c(cc1C)C(C)(C)CCC2(C)C [Bexarotene] + Nc1nc2[nH]cc(CCc3ccc(C(=O)N[C@@H](CCC(=O)O)C(=O)O)cc3)c2c(=O)[nH]1 [Pemetrexed] (partner 0.2 µM)
Method in brief: (§1)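 Lung cancer cell lines were seeded in 1536-well plates and dosed by pin tool the next day, with either a single drug or a fixed anchor-drug dose combined with five library-drug doses (not always all listed) spaced in √10 steps. Five days later, one step fixed the cells and stained their nuclei (final 0.05% Triton X-100, 1% formaldehyde, 1 ug/ml Hoechst), and nuclei were counted on 4× images. Relative viability is the nuclei count in treated wells divided by the count in vehicle wells, and each value is the median of duplicate plates.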

Bexarotene + Foretinib = compound: C=C(c1ccc(C(=O)O)cc1)c1cc2c(cc1C)C(C)(C)CCC2(C)C [Bexarotene] + COc1cc2c(Oc3ccc(NC(=O)C4(C(=O)Nc5ccc(F)cc5)CC4)cc3F)ccnc2cc1OCCCN1CCOCC1 [Foretinib] (partner 0.25 µM)
Method in brief: as §1

Bexarotene + Alpelisib = compound: C=C(c1ccc(C(=O)O)cc1)c1cc2c(cc1C)C(C)(C)CCC2(C)C [Bexarotene] + Cc1nc(NC(=O)N2CCC[C@H]2C(N)=O)sc1-c1ccnc(C(C)(C)C(F)(F)F)c1 [Alpelisib] (partner 2 µM)
Method in brief: as §1

Bexarotene + Olaparib = compound: C=C(c1ccc(C(=O)O)cc1)c1cc2c(cc1C)C(C)(C)CCC2(C)C [Bexarotene] + O=C(c1cc(Cc2n[nH]c(=O)c3ccccc23)ccc1F)N1CCN(C(=O)C2CC2)CC1 [Olaparib] (partner 8 µM)
Method in brief: as §1

Cell Line | relative viability (Bexarotene + Pemetrexed; first compound 0.08 µM) | relative viability (Bexarotene + Pemetrexed; first compound 0.253 µM) | relative viability (Bexarotene + Pemetrexed; first compound 0.8 µM) | relative viability (Bexarotene + Pemetrexed; first compound 2.53 µM) | relative viability (Bexarotene + Pemetrexed; first compound 8 µM) | relative viability (Bexarotene + Foretinib; first compound 0.08 µM) | relative viability (Bexarotene + Foretinib; first compound 0.253 µM) | relative viability (Bexarotene + Foretinib; first compound 0.8 µM) | relative viability (Bexarotene + Foretinib; first compound 2.53 µM) | relative viability (Bexarotene + Foretinib; first compound 8 µM) | relative viability (Bexarotene + Alpelisib; first compound 0.08 µM) | relative viability (Bexarotene + Alpelisib; first compound 0.253 µM) | relative viability (Bexarotene + Alpelisib; first compound 0.8 µM) | relative viability (Bexarotene + Alpelisib; first compound 2.53 µM) | relative viability (Bexarotene + Alpelisib; first compound 8 µM) | relative viability (Bexarotene + Olaparib; first compound 0.08 µM) | relative viability (Bexarotene + Olaparib; first compound 0.253 µM) | relative viability (Bexarotene + Olaparib; first compound 0.8 µM) | relative viability (Bexarotene + Olaparib; first compound 2.53 µM) | relative viability (Bexarotene + Olaparib; first compound 8 µM)
NCI-H838 | 0.275 | 0.254 | 0.272 | 0.251 | 0.249 | 1.14 | 1.03 | 1.06 | 1.05 | 1.01 | 1.1 | 1.11 | 1.14 | 1.08 | 1.06 | 0.809 | 0.784 | 0.74 | 0.725 | 0.745
NCI-H1437 | 0.352 | 0.302 | 0.338 | 0.296 | 0.322 | 1.26 | 1.32 | 1.22 | 1.23 | 1.26 | 1.02 | 1.06 | 0.946 | 1.11 | 0.829 | 0.613 | 0.638 | 0.599 | 0.623 | 0.597
NCI-H2170 | 0.265 | 0.272 | 0.254 | 0.258 | 0.27 | 1.03 | 1.03 | 0.983 | 0.922 | 0.977 | 0.762 | 0.777 | 0.782 | 0.759 | 0.66 | 0.576 | 0.645 | 0.574 | 0.609 | 0.562
LCLC-103H | 0.462 | 0.453 | 0.462 | 0.436 | 0.472 | 0.753 | 0.665 | 0.695 | 0.814 | 0.677 | 1.03 | 0.968 | 1.04 | 1.09 | 0.993 | 0.827 | 0.896 | 0.699 | 0.779 | 0.825
NCI-H441 | 0.268 | 0.319 | 0.26 | 0.257 | 0.249 | 1.01 | 1.04 | 1.13 | 0.841 | 0.927 | 1.09 | 1.06 | 0.727 | – | 0.841 | 0.608 | 0.61 | 0.628 | 0.599 | 0.495
SK-LU-1 | 1.03 | 1.03 | – | 0.944 | 0.923 | 0.785 | 0.898 | – | 0.791 | 0.762 | 1.11 | 1.06 | – | 0.97 | 0.988 | 0.557 | 0.43 | – | 0.417 | 0.399
BEN | 0.883 | 0.629 | 0.784 | 0.637 | 0.725 | 0.802 | 0.387 | 0.567 | 0.318 | 0.674 | 1.03 | 0.962 | 0.898 | 0.836 | 0.893 | 1.05 | 0.942 | 1 | 0.853 | 1.06
LC-2-ad | 0.294 | 0.279 | 0.28 | 0.247 | 0.302 | 0.976 | 1.01 | 0.969 | 0.982 | 0.893 | 0.872 | 1.15 | 0.762 | 0.96 | 0.861 | 0.711 | 0.693 | 0.663 | 0.541 | 0.661
COR-L23 | 0.198 | 0.206 | 0.198 | 0.214 | 0.202 | 0.999 | 1.06 | 0.908 | 0.952 | 1.05 | 0.872 | 0.768 | 0.555 | 0.685 | 0.757 | 0.344 | 0.365 | 0.323 | 0.373 | 0.301
RERF-LC-KJ | 0.506 | 0.513 | 0.501 | 0.506 | 0.47 | 0.839 | 0.823 | 0.715 | 0.795 | 0.777 | 0.712 | 0.784 | 0.723 | 0.715 | 0.77 | 0.991 | 0.885 | 0.812 | 0.888 | 0.865
NCI-H1915 | 0.519 | 0.492 | 0.54 | 0.473 | 0.439 | 1.19 | 1.13 | 1.1 | 1.06 | 1.07 | 1.17 | 1.06 | 1.04 | 1 | 0.95 | 0.265 | 0.262 | 0.284 | 0.278 | 0.242
NCI-H596 | 0.47 | 0.482 | 0.451 | 0.456 | 0.736 | 0.781 | 0.61 | 0.813 | 0.853 | 0.858 | 0.581 | 0.6 | 0.479 | 0.668 | 0.565 | 0.715 | 0.679 | 0.85 | 0.672 | 0.817
NCI-H2009 | 1.09 | 1.04 | 1.12 | 0.973 | 0.998 | 1.33 | 1.34 | 1.24 | 1.29 | 1.19 | 1.27 | 1.23 | 1.11 | 1.17 | 1.06 | 0.772 | 0.697 | 0.727 | 0.664 | 0.663
NCI-H2126 | 0.822 | 0.679 | 0.621 | 0.742 | 0.636 | 0.971 | 1.2 | 1.1 | 1.22 | 1.07 | 0.8 | 0.81 | 0.698 | 0.826 | 0.847 | 0.927 | 0.912 | 0.855 | 0.837 | 0.816
LXF-289 | 1.04 | 1.12 | 1.16 | 0.974 | 1.04 | 1.18 | 1.02 | 1.02 | 1.09 | 1.22 | 1.04 | 1.1 | 1.06 | 1.04 | 0.983 | 1.21 | 1.16 | 1.1 | 1.06 | 1.2

Source: the supplement of paper PMC10307832
